Measurements published in ChEMBL document CHEMBL5532734, “Lysosomal Degradation of Extracellular Targets: Innovations and Implications” (ACS Med Chem Lett, 2024).

Biological target: T1, Sortilin (Homo sapiens, UniProt Q99523)
T1 sequence (Q99523 whole entry): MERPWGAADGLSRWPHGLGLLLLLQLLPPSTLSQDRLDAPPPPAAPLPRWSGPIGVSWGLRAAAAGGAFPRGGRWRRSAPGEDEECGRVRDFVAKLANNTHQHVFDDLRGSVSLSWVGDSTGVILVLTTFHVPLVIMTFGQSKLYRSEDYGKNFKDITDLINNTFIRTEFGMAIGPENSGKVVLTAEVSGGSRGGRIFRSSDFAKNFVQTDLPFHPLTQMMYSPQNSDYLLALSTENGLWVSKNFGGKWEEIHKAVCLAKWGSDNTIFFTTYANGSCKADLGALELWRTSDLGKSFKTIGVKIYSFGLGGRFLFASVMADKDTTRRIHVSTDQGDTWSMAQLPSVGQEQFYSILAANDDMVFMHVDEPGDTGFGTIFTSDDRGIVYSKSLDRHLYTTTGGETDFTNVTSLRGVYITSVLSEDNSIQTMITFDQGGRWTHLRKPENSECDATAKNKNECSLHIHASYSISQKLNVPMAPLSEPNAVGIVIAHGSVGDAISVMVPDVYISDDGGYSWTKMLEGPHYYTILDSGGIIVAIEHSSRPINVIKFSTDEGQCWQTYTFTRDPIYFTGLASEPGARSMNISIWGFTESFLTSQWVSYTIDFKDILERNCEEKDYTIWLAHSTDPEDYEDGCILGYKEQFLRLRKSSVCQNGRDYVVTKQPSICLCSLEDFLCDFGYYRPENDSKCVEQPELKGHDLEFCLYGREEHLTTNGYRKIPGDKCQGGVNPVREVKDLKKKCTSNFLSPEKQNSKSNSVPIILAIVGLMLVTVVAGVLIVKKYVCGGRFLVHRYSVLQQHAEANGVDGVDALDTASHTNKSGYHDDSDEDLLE
Assay: Binding affinity to 6-His tagged sortilin (unknown origin) assessed as equilibrium dissociation constant by MST analysis

Row | Structure (SMILES) | Kd [nM]
1 | CC(C)(C)CC[C@H](NC(=O)c1ccc(Oc2cccc(C(=O)NCCOCCOCCOCCOCCOCCNc3ncc(-c4ccc5c(n4)N(Cc4cccnc4C#N)C(C)(C)C5=O)cn3)c2)nc1)C(=O)O | < 1
2 | C[C@@H]1CN(c2ncc(-c3ccc4c(n3)N(Cc3cccnc3C#N)C(C)(C)C4=O)cn2)CCN1C(=O)COCCCCNC(=O)c1cccc(Oc2ccc(C(=O)N[C@@H](CCC(C)(C)C)C(=O)O)cn2)c1 | < 1
3 | C[C@@H]1CN(c2ncc(-c3ccc4c(n3)N(Cc3cccnc3C#N)C(C)(C)C4=O)cn2)CCN1C(=O)COCCCCCCCCNC(=O)c1cccc(Oc2ccc(C(=O)N[C@@H](CCC(C)(C)C)C(=O)O)cn2)c1 | < 1

More lines, now with the values ahead:

Row | Kd [nM] | Structure (SMILES)
4 | < 1 | CC(C)(C)CC[C@H](NC(=O)c1ccc(Oc2cccc(C(=O)NCCOCCOCCOCCOCCOCCOc3ncc(-c4ccc5c(n4)N(Cc4cccnc4C#N)C(C)(C)C5=O)cn3)c2)nc1)C(=O)O
5 | 1 | CC(C)(C)CC[C@H](NC(=O)c1ccc(Oc2cccc(OCCOCCOCCOCCOCCOCCOCCNC(=O)CCC[C@@H]3SC[C@@H]4NC(=O)N[C@@H]43)c2)nc1)C(=O)O
6 | < 1 | C[C@@H]1CN(c2ncc(-c3ccc4c(n3)N(Cc3cccnc3C#N)C(C)(C)C4=O)cn2)CCN1C(=O)CNC(=O)CCCCCCCCCNC(=O)c1cccc(Oc2ccc(C(=O)N[C@@H](CCC(C)(C)C)C(=O)O)cn2)c1
